This is an account of results in patent US20100190845A1, “METHOD OF TREATING CANCER USING ATP SYNTHASE INHIBITORS” (NATIONAL TAIWAN UNIVERSITY, priority 2009, published 2010).

The nature of data set [1]: Viable cell number counting using trypan blue. The class given is cell-based. The following applies: human; IMR-90 normal lung cells, same time points; read-out: cell viability rate. From the text: (§1) Apart from the traditional role in ATP production, ATP synthase may play critical roles in tumor cell metastases. Human lung adenocarcinoma cell lines CL1-1 and CL1-5 with different metastasis were obtained from the American Type Culture Collection (Manassas, Va.), and human normal lung cell line IMR-90 was obtained from Institute of Biomedical Sciences, Academia Sinica. The CL1-5 cell line is highly metastatic lung cancer cells, but the CL1-1 cell line is low metastatic lung cancer cells.
(§2) Human lung adenocarcinoma cell lines were maintained in DMEM at 37° C. with 5% CO2 (Gibco, Carlsbad, Calif., USA), 5% fetal bovine serum (Gibco), 50 units/mL penicillin, and 50 μg/mL streptomycin (Gibco). IMR-90 cells were culture in DMEM (Gibco), 0.01 mg/mL Insulin, 5 μg/mL Hydrocortisone.
(§3) As shown in FIG. 9 to FIG. 11, cell proliferation assays were in the presence of three F1-targeting H-ATP synthase inhibitors: aurovertin B, resveratol, and piceatannol. […] Thus, aurovertin B caused significant apotosis in CL1-1 and CL1-5 cells.

For the next data set, the system named is CL1-1 lung cancer cells. The data set can be described thus: cells. The class given is cell-based, human. The following applies: for IC50: Homo sapiens.
Text: as §1, §2, §3

Another data set relates to CL1-5 lung cancer cells. Nature of the data set: cells. The class given is cell-based, human. To be noted: for IC50: Homo sapiens.
Text: as §1, §2, §3

Data set [2] has as its system MCF-7 cells. Nature of the data set: Annexin V-FITC/PI analysis of apoptosis. The class given is cell-based, human. The following applies: MCF-7, 0.05-10 μM, 48 hours. The method, then:
Flow cytometric analysis was performed to identify and quantify the apoptotic cells by using Annexin V-FITC/PI (propidium iodide) apoptosis detection kit (Santa Cruz Biotechnology, Santa Cruz, Calif., USA). […] After incubation, floating and adherent cells were harvested. Cells were washed carefully with cold PBS at 4° C. Cell pellets were resuspended in […] of binding buffer. Annexin-V FITC (0.2 μg/100 μL) and PI (10 μg/mL) was added to the cells and left for incubation in the dark for 15 min at room temperature. All data were acquired by flow cytometry using a FACSCanto cytometer (Becton Dickinson, San Jose, Calif., USA). The flow cytometric analysis was performed using FCS Express 3.0 (DeNovo software).

Data set [3] is described as follows: MTT assay, cell viability. The class given is cell-based, human. The following applies: human; MCF-10A normal breast cells, same time points; read-out: cell viability rate. Here is the method: (§4) Human breast cancer cell lines, MCF-7, MDA-MB231, T47D and human normal breast cell line MCF-10A, were obtained from the American Type Culture Collection (Manassas, Va.). Human breast cancer cell lines were maintained in DMEM at 37° C. with 5% CO2 (Gibco, Carlsbad, Calif., USA), 5% fetal bovine serum (Gibco), 50 units/mL penicillin, and 50 μg/mL streptomycin (Gibco). MCF-10A cells were culture in DMEM (Gibco), 0.01 mg/mL Insulin, 5 μg/mL Hydrocortisone.
(§5) Cytotoxic effects on the growth and viability of cells were determined using MTT (3(4,5-dimethylthiazol-2-yl)-2,5-diphenyltetrazolium bromide, a tetrazole) assay. 10^4 cells/mL were plated in 96-well plates and allowed to attach for 24 hours. Cells were treated with […] of aurovertin B, resveratrol and piceatannol for 48 hours. At the end of the incubation period, MTT reagent (10 μL) was added to each 100 μL of culture. After incubation for 4 hr at 37° C., the formed water insoluble formazan dye was solubilized by adding 100 μL of DMSO to the culture wells. The plates were further incubated for 15 min at room temperature, and optical density (OD) of the wells was determined using ELISA microplate reader at a test wavelength of 570 nm. All experiments were performed in triplicates.
A general note: Tetrazolium assays rely on reduction of a dye to a coloured formazan, in cell work by metabolically active cells.

The subject of data set [4] is MCF-7 breast cancer cells. Nature of the data set: MTT assay, cell viability. The class given is cell-based, human. The following applies: MCF-7, 48 hours. The method, then: as §4, §5
The test system of data set [5] is normal breast cell line MCF-10A. Nature of the data set: MTT assay, cell viability. The class given is cell-based, human. To be noted: MCF-10A, under these concentrations. Here is the method:
as §4, §5

Data set [6] relates to MCF-7 cells. Nature of the data set: Cell cycle analysis by flow cytometry. The class given is cell-based, human. To be noted: 48 hours (control 63.1%). Here is the method:
For the determination of cell cycle phase distribution, 3×10^5 MCF-7 cells were first exposed to various concentrations of aurovertin B in DMEM with 10% FBS for 48 hr by flow cytometric analysis. The cells were trypsinized, collected and fixed in 70% cold ethanol (−20° C.) overnight. After washing twice with PBS, cells were resuspended in PBS. RNase A (1 mg/mL) and PI (10 μg/mL) were added to the fixed cells for 30 min. The DNA content of cells was then analyzed with a FACSCanto instrument (Becton Dickinson, San Jose, Calif., USA). The percentage of cells in different phases of the cell cycle was calculated by MultiCycle (DeNovo software, Ontario, Canada).
(A flow cytometer gives signals particle by particle.)

In data set [7] the test system is MDAMB231 breast cancer cell line. Nature of the data set: MTT assay, cell viability. The class given is cell-based. The following applies: Homo sapiens, MDA-MB-231, MDAMB231, 48 hours. Here is the method:
as §4, §5

The test system of data set [8] is T47D breast cancer cell line. The data set can be described thus: MTT assay, cell viability. The class given is cell-based. To be noted: Homo sapiens, 48 hours. Here is the method:
as §4, §5

Data set [9] has as its system HeLa cervical cancer cells. The following applies: Acta Biochimica Polonica 2004; cited from earlier work.
Data set [10] has as its system MCF-7 cells. The data set can be described thus: DAPI staining of nuclear morphology. The class given is cell-based, human. To be noted: MCF-7, 48 h, IC50 concentration. The method, then: After treatment for 48 h with DMSO (control) or aurovertin B (at their respective IC50 concentrations), cells were fixed in 4% paraformaldehyde for 15 min and stained with DAPI (2 μg/mL in PBS) for 15 min at 37° C. to detect apoptotic bodies (Sigma, St. Louis, Mo., USA). Results were determined by visual observation of nuclear morphology via fluorescence microscopy.

Entries after “also recorded” stand apart in the source; their conditions may differ. Read-outs that look alike come from different tables or passages of the source. Some results are limits rather than exact numbers.

As a reminder, the viability is a read-out of living cells in per cent, often relative to untreated cells. What is called IC50 is the concentration that inhibits the measured activity by half. With `Oc1ccc(C=Cc2cc(O)cc(O)c2)cc1` [resveratrol], the viability in [1] is ≤ 60%. For the same molecule, the IC50 is 10000 nM with CL1-1 lung cancer cells (CL-11, CL1-1, low metastatic lung cancer cells, read-out: IC50) and ~5000 nM in the data set with CL1-5 lung cancer cells (CL1-5, highly metastatic lung cancer cells, read-out: IC50).
Turning to `Oc1cc(O)cc(/C=C/c2ccc(O)c(O)c2)c1` [piceatannol], in data set [1], the viability worked out at 60%. Further, the cell viability rate in the data set on CL1-1 lung cancer cells (CL1-1) and with CL1-5 lung cancer cells (CL1-5) was ≥ 80% each time.
As for `CC[C@H]1OC2(C)C(OC(C)=O)[C@@]1(C)OC(/C=C/C=C/C=C/c1oc(=O)cc(OC)c1C)[C@@H]2O` (stereo partly drawn) [aurovertin B], the viability in [1] is ≥ 60%. Further, the “early and late apoptotic/necrotic cells” value in the data set with MCF-7 cells [2] is “dose-dependent increase in both early and late apoptotic/necrotic cells”. Moreover, the IC50 in the data set on CL1-1 lung cancer cells (CL1-1) is 100 to 500 nM; in the data set with CL1-5 lung cancer cells (CL1-5, CL1-5, highly metastatic lung cancer cells), ~500 nM; in data set [4] (Homo sapiens, MCF7, 48 h), 100 nM; in [4], 90 nM; in [7] it was 5520 nM; in [8] it was 890 nM. In data set [3], the viability at 48 h is ≥ 80%. For the same molecule, the “cytotoxicity to normal cells” value in data set [5] is on record as “no apparent cytotoxicity”. In addition, the “percentage of cells in G0/G1 phase” value with MCF-7 cells [6] (MCF-7, 0.1 μM) came out at 66.5%; in the data set with MCF-7 cells [6] (MCF-7, 1 μM) it was 78.5%; in the data set on MCF-7 cells [6] (MCF-7, 5 μM), 81.2%. Further, the “release of cytochrome c and apoptosis” value in [9] is “didn't affect the release of cytochrome c and apoptosis; also recorded: can't cause apotosis”. The “morphological changes of the nuclei” value with MCF-7 cells [10] is “condensation and shrinkage of nuclei”.
